From patent publication US20040235919A1, “Phenylacetamido-thiazole derivatives, process for the preparation and their use as antitumor agents” (priority 2001, published 2004)

Molecular target: cdk2/cyclin A (Homo sapiens, UniProt P24941)
Experiment: Inhibition assay of cdk2/Cyclin A activity (SPA)
Format: biochemical
Conditions: tested against cdk2/cyclin A; read-out: inhibitory activity, expressed as IC50
Source text: When the number of compounds to be tested became consistent, the need for a fast and homogeneous screening assay was raised. Thus a method of assay based on the use of the SPA technology (Amersham Pharmacia Biotech) was set up. The assay consists of the transfer of radioactivity labelled phosphate moiety by the kinase to a biotinylated substrate. The resulting 33P-labelled biotinylated product is allowed to bind to streptavidin-coated SPA beads (biotin capacity 130 pmol/mg), and light emitted was measured in a scintillation counter.
Inhibition Assay of cdk2/Cyclin A Activity
Kinase reaction: 4 microM in house biotinylated histone H1 (Sigma # H-5505) substrate, 10 microM ATP (0.1 microCi P^33gamma-ATP), 4.2 ng cdk2/Cyclin A complex, inhibitor in a final volume of 30 microl buffer (TRIS HCl 10 mM pH 7.5, MgCl2 10 mM, DTT 7.5 mM+0.2 mg/ml BSA) were added to each well of a 96 U bottom. […]
After 20 min. incubation for substrate capture, 100 microl 5M CsCl were added to allow statification of beads to the top of the plate and let stand 4 hours before radioactivity counting in the Top-Count instrument
IC50 determination: inhibitors were tested at different concentrations ranging from 0.0015 to 10 microM. Experimental data were analyzed by the computer program GraphPad Prizm using the four parameter logistic equation: […]

Row | IC50 [nM] | Structure (SMILES)
1 | 11 | CC(=O)Nc1ccc([C@H](C)C(=O)Nc2ncc(C(C)C)s2)cc1 [(2S)-2-[4-(acetylamino)phenyl]-N-(5-isopropyl-1,3-thiazol-2-yl)propanamide]
2 | 110 | CC(=O)Nc1ccc(CC(=O)Nc2ncc(C(C)C)s2)cc1 [N-(5-isopropyl-1,3-thiazol-2-yl)-2-[4-(acetylamino)phenyl]acetamide]
